The values below come from patent publication US9902986B2, “Enterobactin conjugates and uses thereof” (Massachusetts Institute of Technology, priority 2013, dated 2018).

The test system of one experiment is S. aureus ATCC 25923. Description: Antibacterial activity assay, S. aureus. The class given is cell-based, Staphylococcus aureus. The following applies: iron limitation (200 μM 2,2′-dipyridyl). The method, then: No antibiotic marker was included in these cultures. […] Bacterial growth was determined by measuring OD600 using a BIOTEK SYNERGY HT plate reader. Each well condition was prepared in duplicate, and at least three independent replicates were conducted on different days. The resulting mean OD600 are reported and the error bars are the standard deviation.
Ampicillin and amoxicillin are β-lactam antibiotics that have periplasmic targets in Gram-negative bacteria and inhibit cell wall biosynthesis. The antibacterial activity of Ent-ampicillin and Ent-amoxicillin conjugates 44 and 45 was evaluated in vitro against a panel of Gram-negative and positive-bacteria. FIG. 6 provides exemplary results from antibacterial activity assays against select bacterial species that include non-pathogenic and pathogenic E. coli strains and also Staphylococcus aureus. Under conditions of iron limitation (200 μM 2,2′-dipyridyl), the conjugates provide 100- to 1000-fold improved activity against various E. coli strains, including human pathogens, compared to the unmodified antibiotics.

Experiment [1] has as its system E. coli CFT073 in the presence of S. aureus 25923. Description: Co-culture of E. coli CFT073 and S. aureus 25923. The experiment is classed as cell-based, Escherichia coli. The note with it: co-culture in a 1:1 ratio. From the text: (FIG. 20A) Images showing three cultures untreated with any antibiotics: E. coli CFT073, S. aureus 25923, and E. coli CFT073 and S. aureus 25923 co-culture (in a 1:1 ratio). (FIG. 20B) Images showing co-cultures of E. coli CFT073 and S. aureus 25923 (in a 1:1 ratio), in the absence of any antibiotics or in the presence of Amp, Amx, Ent-Amp, or Ent-Amx.

Each structure is given as a SMILES string.

`CC1(C)SC2C(NC(=O)C(NC(=O)CCCc3cn(CCOCCOCCOCCNC(=O)c4cc(O)c(O)c(C(=O)NC5COC(=O)C(NC(=O)c6cccc(O)c6O)COC(=O)C(NC(=O)c6cccc(O)c6O)COC5=O)c4)nn3)c3ccccc3)C(=O)N2C1C(=O)O` (stereo not drawn) [Ent-Amp]: the “enhancement of activity compared to the unmodified antibiotics” value with S. aureus ATCC 25923 is “no enhancement of activity”. The “killing of E. coli CFT073 co-cultured with S. aureus 25923” value in experiment [1] was “killed E. coli CFT073”.

Turning to `CC1(C)SC2C(NC(=O)C(NC(=O)CCCc3cn(CCOCCOCCOCCNC(=O)c4cc(O)c(O)c(C(=O)NC5COC(=O)C(NC(=O)c6cccc(O)c6O)COC(=O)C(NC(=O)c6cccc(O)c6O)COC5=O)c4)nn3)c3ccc(O)cc3)C(=O)N2C1C(=O)O` (stereo not drawn) [Ent-Amx], the “enhancement of activity compared to the unmodified antibiotics” value in the experiment on S. aureus ATCC 25923 was “no enhancement of activity”. Besides, the “killing of E. coli CFT073 co-cultured with S. aureus 25923” value in experiment [1] is reported as “killed E. coli CFT073”.
